Experimental data taken from paper PMC4240915, “Insights into the posttranslational assembly of the Mo-, S- and Cu-containing cluster in the active site of CO dehydrogenase of Oligotropha carboxidovorans” (Journal of Biological Inorganic Chemistry, 2014).
Each block holds one compound with its values, some of them ahead of it.

Assays:
[1] = biological target: T1, CO dehydrogenase (FAD site on CoxM) (Afipia carboxidovorans, UniProt P19920); assay: spectrophotometric FAD determination at […] nm after trichloroacetic acid precipitation; assay type: binding; conditions: wild-type enzyme from CO-grown cells; co-purified cofactor
T1 construct: native enzyme purified from wild-type O. carboxidovorans OM5; same complex as P1, as isolated with [CuSMoO2] cluster; with Carbon monoxide dehydrogenase large chain; Carbon monoxide dehydrogenase small chain
T1 sequence (P19920 1-288): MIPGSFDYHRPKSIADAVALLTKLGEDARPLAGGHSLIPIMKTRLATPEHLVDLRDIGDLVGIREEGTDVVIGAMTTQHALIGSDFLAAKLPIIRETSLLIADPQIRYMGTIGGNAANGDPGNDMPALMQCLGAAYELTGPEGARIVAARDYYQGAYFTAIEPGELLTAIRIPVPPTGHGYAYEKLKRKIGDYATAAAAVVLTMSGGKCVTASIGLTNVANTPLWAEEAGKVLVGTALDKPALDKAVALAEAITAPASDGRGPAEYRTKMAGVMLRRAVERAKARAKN
T1 sequence (P19919 1-809 partner): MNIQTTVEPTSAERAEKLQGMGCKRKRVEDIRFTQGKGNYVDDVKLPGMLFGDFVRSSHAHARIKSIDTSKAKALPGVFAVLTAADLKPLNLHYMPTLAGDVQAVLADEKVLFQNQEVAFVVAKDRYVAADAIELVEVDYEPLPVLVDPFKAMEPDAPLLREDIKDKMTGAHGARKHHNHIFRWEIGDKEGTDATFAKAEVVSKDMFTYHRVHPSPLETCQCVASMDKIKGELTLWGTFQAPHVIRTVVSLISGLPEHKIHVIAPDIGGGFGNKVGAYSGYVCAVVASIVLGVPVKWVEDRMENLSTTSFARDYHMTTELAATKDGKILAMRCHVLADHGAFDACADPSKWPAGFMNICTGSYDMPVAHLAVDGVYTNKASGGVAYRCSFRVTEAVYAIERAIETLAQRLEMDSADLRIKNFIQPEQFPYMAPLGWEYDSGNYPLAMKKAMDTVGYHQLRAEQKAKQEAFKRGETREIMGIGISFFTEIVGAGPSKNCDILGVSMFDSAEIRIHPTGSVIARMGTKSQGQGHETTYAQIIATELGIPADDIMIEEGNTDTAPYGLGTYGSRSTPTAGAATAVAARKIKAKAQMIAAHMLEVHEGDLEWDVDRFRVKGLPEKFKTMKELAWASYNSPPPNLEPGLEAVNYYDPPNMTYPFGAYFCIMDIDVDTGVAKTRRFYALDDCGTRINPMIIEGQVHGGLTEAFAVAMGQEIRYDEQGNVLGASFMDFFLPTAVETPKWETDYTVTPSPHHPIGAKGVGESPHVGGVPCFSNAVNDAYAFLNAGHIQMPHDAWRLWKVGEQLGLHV
T1 sequence (P19921 1-166 partner): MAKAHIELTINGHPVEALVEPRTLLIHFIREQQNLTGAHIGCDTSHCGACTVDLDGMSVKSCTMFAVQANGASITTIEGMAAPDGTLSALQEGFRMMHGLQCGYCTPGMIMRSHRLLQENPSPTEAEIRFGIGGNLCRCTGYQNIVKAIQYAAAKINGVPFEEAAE

[2] = biological target: T1, CO dehydrogenase (FAD site on CoxM); assay: photometric assay of CO oxidation with INT as electron acceptor; assay type: biochemical; conditions: electron acceptor with CO as electron donor, 30 °C; acceptor site (FAD) not shown in the paper
[3] = biological target: T2, CO dehydrogenase (molybdenum site on CoxL) (Afipia carboxidovorans, UniProt P19919); assay: Mo(V) EPR at […] K; assay type: binding; conditions: 15 mM ligand, 50 mM HEPES pH 7.2, N2, 25 min room temperature; resulfurated copper-free [MoO2S] enzyme; covalent (mixed disulfide at Mo-bound sulfur)
T2 construct: native enzyme purified from O. carboxidovorans OM5; Mo-, Fe-S- and FAD-containing; Cu and sulfane sulfur removed by KCN, then resulfurated to the [MoO2S] form (copper-free); with Carbon monoxide dehydrogenase medium chain; Carbon monoxide dehydrogenase small chain
T2 sequence (P19919 1-809): T1 sequence (P19919 1-809 partner)
T2 sequence (P19921 1-166 partner): T1 sequence (P19921 1-166 partner)
T2 sequence (P19920 1-288 partner): T1 sequence (P19920 1-288)

Wild type (CO) [1]: 1.93 ± 0.08 mol per mol
Compound: Cc1cc2nc3c(=O)[nH]c(=O)nc-3n(C[C@H](O)[C@H](O)[C@H](O)COP(=O)(O)OP(=O)(O)OC[C@H]3O[C@@H](n4cnc5c(N)ncnc54)[C@H](O)[C@@H]3O)c2cc1C [FAD]

Compound: O=[N+]([O-])c1ccc(-[n+]2nc(-c3ccccc3)nn2-c2ccc(I)cc2)cc1 [INT, 1-phenyl-2-(4-iodo-phenyl)-3-(4-nitrophenyl)-2H-tetrazolium chloride]
photometric assay of CO oxidation with INT as electron acceptor [2]: CO-oxidizing activity was assayed photometrically employing INT

Compound: N[C@@H](CS)C(=O)O [L-cysteine]
Mo(V) EPR at 120 K [3]: SH group of the studied sulfur compounds can bind to the equatorial sulfur of [MoO2S]
